Measurements from ChEMBL document CHEMBL1201861, “Genomics of Drug Sensitity in Cancer screening data, Wellcome Trust Sanger Institute”.

What was measured:
M059J = experiment: cells; type: functional, cell-based, Homo sapiens; conditions: Homo sapiens, M059J;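 also: growth inhibition of M059J cells, read out with a cell viability assay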
Description: SANGER: Inhibition of human M059J cell growth in a cell viability assay.

LC4-1 = experiment: cells; type: functional, cell-based, Homo sapiens; conditions: Homo sapiens, LC4-1;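 also: growth inhibition of LC4-1 cells, read out with a cell viability assay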
Description: SANGER: Inhibition of human LC4-1 cell growth in a cell viability assay.

NCI-H1417 = experiment: cells; type: functional, cell-based, Homo sapiens; conditions: Homo sapiens, NCI-H1417;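 also: human NCI-H1417 cells, growth inhibition determined with a cell viability readout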
Description: SANGER: Inhibition of human NCI-H1417 cell growth in a cell viability assay.

LP-1 = experiment: cells; type: functional, cell-based, Homo sapiens; conditions: Homo sapiens, LP-1;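 also: growth inhibition of human LP-1 cells, with the read-out taken from a cell viability assay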
Description: SANGER: Inhibition of human LP-1 cell growth in a cell viability assay.

SW48 = experiment: cells; type: functional, cell-based, Homo sapiens; conditions: Homo sapiens, SW48;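 also: growth inhibition of SW48 cells, read out with a cell viability assay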
Description: SANGER: Inhibition of human SW48 cell growth in a cell viability assay.

HO-1-N-1 = experiment: cells; type: functional, cell-based, Homo sapiens; conditions: Homo sapiens, HO-1-N-1;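 also: growth inhibition of human HO-1-N-1 cells, read out with a cell viability assay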
Description: SANGER: Inhibition of human HO-1-N-1 cell growth in a cell viability assay.

DOK = experiment: cells; type: functional, cell-based, Homo sapiens; conditions: Homo sapiens, DOK;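 also: cell viability assay read-out, values reflect inhibition of cell growth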
Description: SANGER: Inhibition of human DOK cell growth in a cell viability assay.

CAL-39 = experiment: cells; type: functional, cell-based, Homo sapiens; conditions: Homo sapiens, CAL-39;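 also: cell viability assay measuring growth inhibition of CAL-39 cells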
Description: SANGER: Inhibition of human CAL-39 cell growth in a cell viability assay.

SW1710 = experiment: cells; type: functional, cell-based, Homo sapiens; conditions: Homo sapiens, SW1710;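 also: growth inhibition of SW1710 cells, determined with a cell viability assay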
Description: SANGER: Inhibition of human SW1710 cell growth in a cell viability assay.

RPMI-7951 = experiment: cells; type: functional, cell-based, Homo sapiens; conditions: Homo sapiens, RPMI-7951
Description: SANGER: Inhibition of human RPMI-7951 cell growth in a cell viability assay.

RL = experiment: cells; type: functional, cell-based, Homo sapiens; conditions: Homo sapiens, RL
Description: SANGER: Inhibition of human RL cell growth in a cell viability assay.

U-118-MG = experiment: cells; type: functional, cell-based, Homo sapiens; conditions: Homo sapiens, U-118-MG
Description: SANGER: Inhibition of human U-118-MG cell growth in a cell viability assay.

LU-99A = experiment: cells; type: functional, cell-based, Homo sapiens; conditions: Homo sapiens, LU-99A;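 also: growth inhibition of LU-99A cells, read out with a cell viability assay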
Description: SANGER: Inhibition of human LU-99A cell growth in a cell viability assay.

HuP-T4 = experiment: cells; type: functional, cell-based, Homo sapiens; conditions: Homo sapiens, HuP-T4;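 also: cell viability assay measuring how much HuP-T4 cell growth is inhibited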
Description: SANGER: Inhibition of human HuP-T4 cell growth in a cell viability assay.

NCI-H2405 = experiment: cells; type: functional, cell-based, Homo sapiens; conditions: Homo sapiens, NCI-H2405;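 also: growth inhibition of the human cell line, read out with a cell viability assay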
Description: SANGER: Inhibition of human NCI-H2405 cell growth in a cell viability assay.

ABC-1 = experiment: cells; type: functional, cell-based, Homo sapiens; conditions: Homo sapiens, ABC-1;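 also: growth inhibition of human ABC-1 cells, read out by a cell viability assay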
Description: SANGER: Inhibition of human ABC-1 cell growth in a cell viability assay.

GCT = experiment: cells; type: functional, cell-based, Homo sapiens; conditions: Homo sapiens, GCT;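 also: GCT cell line proliferation inhibition, read out with a cell viability assay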
Description: SANGER: Inhibition of human GCT cell growth in a cell viability assay.

HCC1599 = experiment: cells; type: functional, cell-based, Homo sapiens; conditions: Homo sapiens, HCC1599;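 also: growth inhibition of HCC1599 cells, read out in a cell viability assay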
Description: SANGER: Inhibition of human HCC1599 cell growth in a cell viability assay.

BEN = experiment: cells; type: functional, cell-based, Homo sapiens; conditions: Homo sapiens, BEN;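 also: growth inhibition of the BEN cell line, read out with a cell viability assay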
Description: SANGER: Inhibition of human BEN cell growth in a cell viability assay.

SCC-25 = experiment: cells; type: functional, cell-based, Homo sapiens; conditions: Homo sapiens, SCC-25;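 also: growth inhibition of SCC-25 cells, measured with a cell viability assay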
Description: SANGER: Inhibition of human SCC-25 cell growth in a cell viability assay.

NUGC-3 = experiment: cells; type: functional, cell-based, Homo sapiens; conditions: Homo sapiens, NUGC-3;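 also: growth inhibition of human NUGC-3 cells, read out with a cell viability assay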
Description: SANGER: Inhibition of human NUGC-3 cell growth in a cell viability assay.

HLE = experiment: cells; type: functional, cell-based, Homo sapiens; conditions: Homo sapiens, HLE;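 also: growth inhibition of human HLE cells, read out by a cell viability assay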
Description: SANGER: Inhibition of human HLE cell growth in a cell viability assay.

SAS = experiment: cells; type: functional, cell-based, Homo sapiens; conditions: Homo sapiens, SAS;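 also: growth inhibition of SAS cells, read out with a cell viability assay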
Description: SANGER: Inhibition of human SAS cell growth in a cell viability assay.

SW948 = experiment: cells; type: functional, cell-based, Homo sapiens; conditions: Homo sapiens, SW948;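 also: growth inhibition of SW948 cells, read out with a cell viability assay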
Description: SANGER: Inhibition of human SW948 cell growth in a cell viability assay.

NCI-H2030 = experiment: cells; type: functional, cell-based, Homo sapiens; conditions: Homo sapiens, NCI-H2030;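 also: growth inhibition of human NCI-H2030 cells, read out by a cell viability assay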
Description: SANGER: Inhibition of human NCI-H2030 cell growth in a cell viability assay.

NCI-H1436 = experiment: cells; type: functional, cell-based, Homo sapiens; conditions: Homo sapiens, NCI-H1436;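 also: growth suppression of human NCI-H1436 cells, determined with a cell viability readout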
Description: SANGER: Inhibition of human NCI-H1436 cell growth in a cell viability assay.

RERF-LC-MS = experiment: cells; type: functional, cell-based, Homo sapiens; conditions: Homo sapiens, RERF-LC-MS;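 also: growth inhibition of human RERF-LC-MS cells, read out by a cell viability assay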
Description: SANGER: Inhibition of human RERF-LC-MS cell growth in a cell viability assay.

COR-L23 = experiment: cells; type: functional, cell-based, Homo sapiens; conditions: Homo sapiens, COR-L23;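 also: cell viability assay measuring how strongly compounds suppress growth of COR-L23 cells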
Description: SANGER: Inhibition of human COR-L23 cell growth in a cell viability assay.

SU-DHL-1 = experiment: SANGER: Inhibition of human SU-DHL-1 cell growth in a cell viability assay.; type: functional, cell-based; conditions: Homo sapiens, SU-DHL-1
AU565 = experiment: cells; type: functional, cell-based, Homo sapiens; conditions: Homo sapiens, AU565;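 also: cell viability assay measuring growth inhibition of human AU565 cells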
Description: SANGER: Inhibition of human AU565 cell growth in a cell viability assay.

SW1463 = experiment: cells; type: functional, cell-based, Homo sapiens; conditions: Homo sapiens, SW1463;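 also: growth inhibition of SW1463 cells, determined with a cell viability assay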
Description: SANGER: Inhibition of human SW1463 cell growth in a cell viability assay.

COLO-678 = experiment: cells; type: functional, cell-based, Homo sapiens; conditions: Homo sapiens, COLO-678
Description: SANGER: Inhibition of human COLO-678 cell growth in a cell viability assay.

NCI-H322M = experiment: cells; type: functional, cell-based, Homo sapiens; conditions: Homo sapiens, NCI-H322M;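 also: cell viability assay measuring inhibition of growth of human NCI-H322M cells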
Description: SANGER: Inhibition of human NCI-H322M cell growth in a cell viability assay.

RD = experiment: cells; type: functional, cell-based, Homo sapiens; conditions: Homo sapiens, RD
Description: SANGER: Inhibition of human RD cell growth in a cell viability assay.

MHH-CALL-2 = experiment: cells; type: functional, cell-based, Homo sapiens; conditions: Homo sapiens, MHH-CALL-2;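 also: growth inhibition of the cell line, read out in a cell viability assay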
Description: SANGER: Inhibition of human MHH-CALL-2 cell growth in a cell viability assay.

OVCAR-3 = experiment: cells; type: functional, cell-based, Homo sapiens; conditions: Homo sapiens, OVCAR-3;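 also: growth inhibition of human OVCAR-3 cells, determined by a cell viability assay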
Description: SANGER: Inhibition of human OVCAR-3 cell growth in a cell viability assay.

CESS = experiment: SANGER: Inhibition of human CESS cell growth in a cell viability assay.; type: functional, cell-based; conditions: Homo sapiens, CESS
CAMA-1 = experiment: cells; type: functional, cell-based, Homo sapiens; conditions: Homo sapiens, CAMA-1;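 also: growth inhibition of CAMA-1 cells, read out with a cell viability assay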
Description: SANGER: Inhibition of human CAMA-1 cell growth in a cell viability assay.

ST486 = experiment: SANGER: Inhibition of human ST486 cell growth in a cell viability assay.; type: functional, cell-based; conditions: Homo sapiens, ST486
UACC-62 = experiment: cells; type: functional, cell-based, Homo sapiens; conditions: Homo sapiens, UACC-62;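 also: growth inhibition of human UACC-62 cells, read out by a cell viability assay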
Description: SANGER: Inhibition of human UACC-62 cell growth in a cell viability assay.

NCI-H441 = experiment: cells; type: functional, cell-based, Homo sapiens; conditions: Homo sapiens, NCI-H441;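 also: growth inhibition of NCI-H441 cells, read out with a cell viability assay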
Description: SANGER: Inhibition of human NCI-H441 cell growth in a cell viability assay.

HCC1806 = experiment: cells; type: functional, cell-based, Homo sapiens; conditions: Homo sapiens, HCC1806;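 also: growth inhibition of the cancer cell line, determined with a cell viability assay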
Description: SANGER: Inhibition of human HCC1806 cell growth in a cell viability assay.

MDA-MB-453 = experiment: cells; type: functional, cell-based, Homo sapiens; conditions: Homo sapiens, MDA-MB-453
Description: SANGER: Inhibition of human MDA-MB-453 cell growth in a cell viability assay.

KYSE-410 = experiment: cells; type: functional, cell-based, Homo sapiens; conditions: Homo sapiens, KYSE-410;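 also: growth inhibition of KYSE-410 cells, measured through a cell viability readout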
Description: SANGER: Inhibition of human KYSE-410 cell growth in a cell viability assay.

CAL-72 = experiment: cells; type: functional, cell-based, Homo sapiens; conditions: Homo sapiens, CAL-72;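 also: cell viability assay measuring inhibition of proliferation in the CAL-72 cell line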
Description: SANGER: Inhibition of human CAL-72 cell growth in a cell viability assay.

23132-87 = experiment: cells; type: functional, cell-based, Homo sapiens; conditions: Homo sapiens
Description: SANGER: Inhibition of human 23132-87 cell growth in a cell viability assay.

SK-N-AS = experiment: cells; type: functional, cell-based, Homo sapiens; conditions: Homo sapiens, SK-N-AS;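 also: growth inhibition of human SK-N-AS cells, measured with a cell viability assay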
Description: SANGER: Inhibition of human SK-N-AS cell growth in a cell viability assay.

Cc1cc([N+](=O)[O-])ccc1NS(=O)(=O)c1cc(Cl)ccc1Cl
IC50 (M059J): 5.94 µM | IC50 (LC4-1): 13.7 µM | IC50 (NCI-H1417): 23.2 µM | IC50 (LP-1): 10.6 µM | IC50 (SW48): 2.48 µM | IC50 (HO-1-N-1): > 32 µM | IC50 (DOK): > 32 µM | IC50 (CAL-39): 2.16 µM | IC50 (SW1710): 2.33 µM | IC50 (RPMI-7951): 29.3 µM | IC50 (RL): > 32 µM | IC50 (U-118-MG): > 32 µM | IC50 (LU-99A): 1.24 µM | IC50 (HuP-T4): 1.68 µM | IC50 (NCI-H2405): 3.96 µM | IC50 (ABC-1): 3.41 µM | IC50 (GCT): 2.93 µM | IC50 (HCC1599): 16.7 µM | IC50 (BEN): 2.28 µM | IC50 (SCC-25): 10.9 µM | IC50 (NUGC-3): 3.65 µM | IC50 (HLE): 1.99 µM | IC50 (SAS): > 32 µM | IC50 (SW948): 12.3 µM | IC50 (NCI-H2030): 4.43 µM | IC50 (NCI-H1436): > 32 µM | IC50 (RERF-LC-MS): 1.49 µM | IC50 (COR-L23): 2.63 µM | IC50 (SU-DHL-1): > 32 µM | IC50 (AU565): 2.34 µM | IC50 (SW1463): 7.85 µM | IC50 (COLO-678): 10.9 µM | IC50 (NCI-H322M): > 32 µM | IC50 (RD): 7.33 µM | IC50 (MHH-CALL-2): 18.2 µM | IC50 (OVCAR-3): 5.81 µM | IC50 (CESS): > 32 µM | IC50 (CAMA-1): 0.911 µM | IC50 (ST486): 4.83 µM | IC50 (UACC-62): 0.256 µM | IC50 (NCI-H441): 6.75 µM | IC50 (HCC1806): 20.5 µM | IC50 (MDA-MB-453): 10.8 µM | IC50 (KYSE-410): 5.83 µM | IC50 (CAL-72): > 32 µM | IC50 (23132-87): 3.5 µM | IC50 (SK-N-AS): 6.53 µM

Oc1ccc2ccccc2c1SSc1c(O)ccc2ccccc12
IC50 (M059J): > 32 µM | IC50 (LC4-1): > 32 µM | IC50 (NCI-H1417): > 32 µM | IC50 (LP-1): 30.5 µM | IC50 (SW48): 21.9 µM | IC50 (HO-1-N-1): > 32 µM | IC50 (DOK): > 32 µM | IC50 (CAL-39): > 32 µM | IC50 (SW1710): 1.18 µM | IC50 (RPMI-7951): > 32 µM | IC50 (RL): > 32 µM | IC50 (U-118-MG): > 32 µM | IC50 (LU-99A): > 32 µM | IC50 (HuP-T4): > 32 µM | IC50 (NCI-H2405): 12 µM | IC50 (ABC-1): > 32 µM | IC50 (GCT): > 32 µM | IC50 (HCC1599): > 32 µM | IC50 (BEN): > 32 µM | IC50 (SCC-25): > 32 µM | IC50 (NUGC-3): > 32 µM | IC50 (HLE): 4.52 µM | IC50 (SAS): > 32 µM | IC50 (SW948): > 32 µM | IC50 (NCI-H2030): > 32 µM | IC50 (NCI-H1436): > 32 µM | IC50 (RERF-LC-MS): > 32 µM | IC50 (COR-L23): 11.8 µM | IC50 (SU-DHL-1): > 32 µM | IC50 (AU565): 31.2 µM | IC50 (SW1463): > 32 µM | IC50 (COLO-678): > 32 µM | IC50 (NCI-H322M): > 32 µM | IC50 (RD): > 32 µM | IC50 (MHH-CALL-2): > 32 µM | IC50 (OVCAR-3): > 32 µM | IC50 (CESS): 12.4 µM | IC50 (CAMA-1): > 32 µM | IC50 (ST486): 4.87 µM | IC50 (UACC-62): > 32 µM | IC50 (NCI-H441): > 32 µM | IC50 (HCC1806): > 32 µM | IC50 (MDA-MB-453): > 32 µM | IC50 (KYSE-410): > 32 µM | IC50 (CAL-72): 24.7 µM | IC50 (23132-87): > 32 µM | IC50 (SK-N-AS): > 32 µM

C=C(c1ccc(C(=O)O)cc1)c1cc2c(cc1C)C(C)(C)CCC2(C)C [BEXAROTENE]
IC50 (M059J): > 8 µM | IC50 (LC4-1): > 8 µM | IC50 (NCI-H1417): > 8 µM | IC50 (LP-1): > 8 µM | IC50 (SW48): > 8 µM | IC50 (HO-1-N-1): > 8 µM | IC50 (DOK): > 8 µM | IC50 (CAL-39): > 8 µM | IC50 (SW1710): > 8 µM | IC50 (RPMI-7951): > 8 µM | IC50 (RL): > 8 µM | IC50 (U-118-MG): > 8 µM | IC50 (LU-99A): > 8 µM | IC50 (HuP-T4): > 8 µM | IC50 (NCI-H2405): > 8 µM | IC50 (ABC-1): > 8 µM | IC50 (GCT): > 8 µM | IC50 (HCC1599): > 8 µM | IC50 (BEN): > 8 µM | IC50 (SCC-25): > 8 µM | IC50 (NUGC-3): > 8 µM | IC50 (HLE): > 8 µM | IC50 (SAS): > 8 µM | IC50 (SW948): > 8 µM | IC50 (NCI-H2030): > 8 µM | IC50 (NCI-H1436): > 8 µM | IC50 (RERF-LC-MS): > 8 µM | IC50 (COR-L23): > 8 µM | IC50 (SU-DHL-1): > 8 µM | IC50 (AU565): > 8 µM | IC50 (SW1463): > 8 µM | IC50 (COLO-678): > 8 µM | IC50 (NCI-H322M): > 8 µM | IC50 (RD): > 8 µM | IC50 (MHH-CALL-2): > 8 µM | IC50 (OVCAR-3): > 8 µM | IC50 (CESS): > 8 µM | IC50 (CAMA-1): > 8 µM | IC50 (ST486): > 8 µM | IC50 (UACC-62): > 8 µM | IC50 (NCI-H441): > 8 µM | IC50 (HCC1806): > 8 µM | IC50 (MDA-MB-453): > 8 µM | IC50 (KYSE-410): > 8 µM | IC50 (CAL-72): > 8 µM | IC50 (23132-87): > 8 µM | IC50 (SK-N-AS): > 8 µM
